In patent publication US9624215B2, “Amine derivative or salt thereof” (TOYAMA CHEMICAL CO., LTD., priority 2012, dated 2017):
pIC50: −log10 of the molar value.

Tested on: normal human neonatal foreskin epidermal keratinocytes (NHEK-F)
Test: Cell proliferation inhibition test
Type: cell-based
Settings: Keratinocyte, 72 h, NHEK-F cells, three days incubation, ATPlite or CellTiterGlo, read-out: IC50 (concentration of the compound at which the cell count is reduced by 50%)
Procedure: 2×10^3 normal human neonatal foreskin epidermal keratinocytes (NHEK-F) (Kurabo, KK-4009) were suspended in 100 μL of Humedia-EG2 (Kurabo, KK-2150S) medium, plated in a 96-well plate and incubated overnight. The test compound was added on the following day and the cells were incubated for further three days. The cell count was determined using ATPlite (PerkinElmer, 6016739) or CellTiterGlo (Promega, G7573).
The inhibition rate was calculated from the following formula to determine the concentration of the compound at which the cell count is reduced by 50% (IC50). Inhibition rate (%)=100−(cell count in the presence of test compound/cell count in the absence of test compound)×100

**Q.** With N#Cc1ccc(Cn2ccc3cc(Nc4ncc(C5CC5)cc4C(=O)O)ccc32)cc1 [Example 454, 2-((1-(4-cyanobenzyl)-1H-indol-5-yl)amino)-5-cyclopropylnicotinic acid] as the compound, how does the pIC50 read?
**A.** Its pIC50 is 7.00 to 8.00.

**Q.** With O=C(O)c1cc(C2CC2)cnc1Nc1ccc2c(ccn2Cc2ccccc2Cl)c1 [Example 459, 2-((1-(2-chlorobenzyl)-1H-indol-5-yl)amino)-5-cyclopropylnicotinic acid] as the compound, how does the pIC50 read?
**A.** Its pIC50 is at least 8.00.

**Q.** With O=C(O)c1cc(C2CC2)cnc1Nc1ccc2c(ccn2Cc2ccc(Cl)cc2)c1 [Example 461, 2-((1-(4-Chlorobenzyl)-1H-indol-5-yl)amino)-5-cyclopropylnicotinic acid] as the compound, how does the pIC50 read?
**A.** The pIC50 was at least 8.00.

**Q.** How did the pIC50 turn out when Cn1ccc2cc(Nc3ncc(C4CC4)cc3C(=O)O)cc(-c3ccccc3-c3ccccc3)c21 [Example 463, 2-((7-([1,1′-biphenyl]-2-yl)-1-methyl-1H-indol-5-yl)amino)-5-cyclopropylnicotinic acid] was run?
**A.** Its pIC50 is at least 8.00.

**Q.** How did the pIC50 turn out when Cn1ccc2cc(Nc3ncc(C4CC4)cc3C(=O)O)cc(-c3cccc(F)c3)c21 [Example 465, 5-cyclopropyl-2-((7-(3-fluorophenyl)-1-methyl-1H-indol-5-yl)amino)nicotinic acid] was run?
**A.** The pIC50 was at least 8.00.

**Q.** COC/C=C/c1cc(Nc2ncc(C3CC3)cc2C(=O)O)cc2ccn(C)c12 [Example 467, (E)-5-cyclopropyl-2-((7-(3-methoxyprop-1-en-1-yl)-1-methyl-1H-indol-5-yl)amino)nicotinic acid] was tested. Which pIC50 did it give?
**A.** The pIC50 was 7.00 to 8.00.

**Q.** Cn1ccc2cc(Nc3ncc(C4CC4)cc3C(=O)O)cc(/C=C/C3CC3)c21 [Example 469, (E)-5-cyclopropyl-2-((7-(2-cyclopropylvinyl)-1-methyl-1H-indol-5-yl)amino)nicotinic acid] was tested. Which pIC50 did it give?
**A.** Its pIC50 is at least 8.00.

**Q.** Cn1ccc2cc(Nc3ncc(C4CC4)cc3C(=O)O)cc(C3=CCOCC3)c21 [Example 471, 5-cyclopropyl-2-((7-(3,6-dihydro-2H-pyran-4-yl)-1-methyl-1H-indol-5-yl)amino)nicotinic acid] was tested. Which pIC50 did it give?
**A.** The pIC50 was at least 8.00.

**Q.** How did the pIC50 turn out when O=C(O)c1cc(C2CC2)cnc1Nc1cccc2c(N3CCCCC3)nccc12 [Example 473, 5-cyclopropyl-2-(1-(piperidin-1-yl)isoquinolin-5-ylamino)nicotinic acid] was run?
**A.** Its pIC50 is 7.00 to 8.00.

**Q.** How did the pIC50 turn out when O=C(O)c1cc(C2CC2)cnc1Nc1cccc2c(N3CCOCC3)nccc12 [Example 475, 5-cyclopropyl-2-(1-morpholinoisoquinolin-5-ylamino)nicotinic acid] was run?
**A.** Its pIC50 is 6.00 to 7.00.

**Q.** With Cc1ccccc1-c1cc(Nc2ncc(C3CC3)cc2C(=O)O)cc2ccn(C)c12 [Example 476, 5-cyclopropyl-2-((1-methyl-7-(o-tolyl)-1H-indol-5-yl)amino)nicotinic acid] as the compound, how does the pIC50 read?
**A.** The pIC50 was at least 8.00.

**Q.** Cc1cccc(-c2cc(Nc3ncc(C4CC4)cc3C(=O)O)cc3ccn(C)c23)c1 [Example 477, 5-cyclopropyl-2-((1-methyl-7-(m-tolyl)-1H-indol-5-yl)amino)nicotinic acid] was tested. Which pIC50 did it give?
**A.** Its pIC50 is at least 8.00.

**Q.** How did the pIC50 turn out when Cc1ccc(-c2cc(Nc3ncc(C4CC4)cc3C(=O)O)cc3ccn(C)c23)cc1 [Example 478, 5-cyclopropyl-2-((1-methyl-7-(p-tolyl)-1H-indol-5-yl)amino)nicotinic acid] was run?
**A.** Its pIC50 is at least 8.00.

**Q.** With Cn1ccc2cc(Nc3ncc(C4CC4)cc3C(=O)O)cc(-c3ccccc3C(F)(F)F)c21 [Example 479] as the compound, how does the pIC50 read?
**A.** The pIC50 was at least 8.00.

**Q.** Cn1ccc2cc(Nc3ncc(C4CC4)cc3C(=O)O)cc(-c3cccc(C(F)(F)F)c3)c21 [Example 480] was tested. Which pIC50 did it give?
**A.** The pIC50 was at least 8.00.

**Q.** Cn1ccc2cc(Nc3ncc(C4CC4)cc3C(=O)O)cc(-c3ccc(C(F)(F)F)cc3)c21 [Example 481] was tested. Which pIC50 did it give?
**A.** The pIC50 was at least 8.00.

**Q.** With Cn1ccc2cc(Nc3ncc(C4CC4)cc3C(=O)O)cc(-c3cccc(C#N)c3)c21 [Example 483, 2-((7-(3-cyanophenyl)-1-methyl-1H-indol-5-yl)amino)-5-cyclopropylnicotinic acid] as the compound, how does the pIC50 read?
**A.** Its pIC50 is at least 8.00.

**Q.** How did the pIC50 turn out when COc1cccc(-c2cc(Nc3ncc(C4CC4)cc3C(=O)O)cc3ccn(C)c23)c1 [Example 486, 5-cyclopropyl-2-((7-(3-methoxyphenyl)-1-methyl-1H-indol-5-yl)amino)nicotinic acid] was run?
**A.** The pIC50 was at least 8.00.

**Q.** How did the pIC50 turn out when COc1ccc(-c2cc(Nc3ncc(C4CC4)cc3C(=O)O)cc3ccn(C)c23)cc1 [Example 487, 5-cyclopropyl-2-((7-(4-methoxyphenyl)-1-methyl-1H-indol-5-yl)amino)nicotinic acid] was run?
**A.** The pIC50 was at least 8.00.

**Q.** With Cn1ccc2cc(Nc3ncc(C4CC4)cc3C(=O)O)cc(-c3ccccc3Cl)c21 [Example 488, 2-((7-(2-chlorophenyl)-1-methyl-1H-indol-5-yl)amino)-5-cyclopropylnicotinic acid] as the compound, how does the pIC50 read?
**A.** Its pIC50 is at least 8.00.

**Q.** With Cn1ccc2cc(Nc3ncc(C4CC4)cc3C(=O)O)cc(-c3cccc(Cl)c3)c21 [Example 489, 2-((7-(3-chlorophenyl)-1-methyl-1H-indol-5-yl)amino)-5-cyclopropylnicotinic acid] as the compound, how does the pIC50 read?
**A.** The pIC50 was at least 8.00.

**Q.** With Cn1ccc2cc(Nc3ncc(C4CC4)cc3C(=O)O)cc(-c3ccc(Cl)cc3)c21 [Example 490, 2-((7-(4-chlorophenyl)-1-methyl-1H-indol-5-yl)amino)-5-cyclopropylnicotinic acid] as the compound, how does the pIC50 read?
**A.** Its pIC50 is at least 8.00.

**Q.** With Cn1ccc2cc(Nc3ncc(C4CC4)cc3C(=O)O)cc(-c3ccccc3OC(F)(F)F)c21 [Example 491, 5-cyclopropyl-2-((1-methyl-7-(2-(trifluoromethoxy)phenyl)-1H-indol-5-yl)amino)nicotinic acid] as the compound, how does the pIC50 read?
**A.** Its pIC50 is at least 8.00.

**Q.** How did the pIC50 turn out when Cn1ccc2cc(Nc3ncc(C4CC4)cc3C(=O)O)cc(-c3cccc(OC(F)(F)F)c3)c21 [Example 492, 5-cyclopropyl-2-((1-methyl-7-(3-(trifluoromethoxy)phenyl)-1H-indol-5-yl)amino)nicotinic acid] was run?
**A.** The pIC50 was at least 8.00.

**Q.** With Cn1ccc2cc(Nc3ncc(C4CC4)cc3C(=O)O)cc(-c3ccc(OC(F)(F)F)cc3)c21 [Example 493, 5-cyclopropyl-2-((1-methyl-7-(4-(trifluoromethoxy)phenyl)-1H-indol-5-yl)amino)nicotinic acid] as the compound, how does the pIC50 read?
**A.** Its pIC50 is at least 8.00.

**Q.** O=C(O)c1cc(C2CC2)cnc1Nc1ccc2c(ccn2Cc2cccc(OC(F)(F)F)c2)c1 [Example 496, 5-cyclopropyl-2-((1-(3-(trifluoromethoxy)benzyl)-1H-indol-5-yl)amino)nicotinic acid] was tested. Which pIC50 did it give?
**A.** Its pIC50 is 7.00 to 8.00.

**Q.** How did the pIC50 turn out when Cc1cc(C)cc(Cn2ccc3cc(Nc4ncc(C5CC5)cc4C(=O)O)ccc32)c1 [Example 498, 5-cyclopropyl-2-((1-(3,5-dimethylbenzyl)-1H-indol-5-yl)amino)nicotinic acid] was run?
**A.** The pIC50 was at least 8.00.

**Q.** How did the pIC50 turn out when O=C(O)c1cc(C2CC2)cnc1Nc1ccc2c(ccn2Cc2cc(C(F)(F)F)cc(C(F)(F)F)c2)c1 [Example 499, 2-((1-(3,5-bis(trifluoromethyl)benzyl)-1H-indol-5-yl)amino)-5-cyclopropylnicotinic acid] was run?
**A.** Its pIC50 is at least 8.00.

**Q.** With Cn1ccc2cc(Nc3ncc(C4CC4)cc3C(=O)O)cc(-c3ccccn3)c21 [Example 500, 5-cyclopropyl-2-((1-methyl-7-(pyridin-2-yl)-1H-indol-5-yl)amino)nicotinic acid] as the compound, how does the pIC50 read?
**A.** The pIC50 was 7.00 to 8.00.

**Q.** With Cn1ccc2cc(Nc3ncc(C4CC4)cc3C(=O)O)cc(C3=CCCCC3)c21 [Example 504] as the compound, how does the pIC50 read?
**A.** Its pIC50 is at least 8.00.

**Q.** How did the pIC50 turn out when O=C(O)c1cc(C2CC2)cnc1Nc1ccc2c(ccn2Cc2cccc(O)c2)c1 [Example 505, 5-cyclopropyl-2-((1-(3-hydroxybenzyl)-1H-indol-5-yl)amino)nicotinic acid] was run?
**A.** Its pIC50 is at least 8.00.

**Q.** How did the pIC50 turn out when COCCOc1cccc(Cn2ccc3cc(Nc4ncc(C5CC5)cc4C(=O)O)ccc32)c1 [Example 506, 5-cyclopropyl-2-((1-(3-(2-methoxyethoxyl)benzyl)-1H-indol-5-yl)amino)nicotinic acid] was run?
**A.** The pIC50 was at least 8.00.

**Q.** COC/C=C/c1cccc(Cn2ccc3cc(Nc4ncc(C5CC5)cc4C(=O)O)ccc32)c1 [Example 508, (E)-5-cyclopropyl-2-((1-(3-(3-methoxyprop-1-en-1-yl)benzyl)-1H-indol-5-yl)amino)nicotinic acid] was tested. Which pIC50 did it give?
**A.** The pIC50 was at least 8.00.

**Q.** COCCCc1cccc(Cn2ccc3cc(Nc4ncc(C5CC5)cc4C(=O)O)ccc32)c1 [Example 509, 5-cyclopropyl-2-((1-(3-(3-methoxypropyl)benzyl)-1H-indol-5-yl)amino)nicotinic acid] was tested. Which pIC50 did it give?
**A.** Its pIC50 is at least 8.00.

**Q.** COCCNc1cccc(Cn2ccc3cc(Nc4ncc(C5CC5)cc4C(=O)O)ccc32)c1 [Example 510, 5-cyclopropyl-2-((1-(3-((2-methoxyethyl)amino)benzyl)-1H-indol-5-yl)amino)nicotinic acid] was tested. Which pIC50 did it give?
**A.** The pIC50 was at least 8.00.

**Q.** With COCCN(C)c1cccc(Cn2ccc3cc(Nc4ncc(C5CC5)cc4C(=O)O)ccc32)c1 [Example 511, 5-cyclopropyl-2-((1-(3-((2-methoxyethyl)(methyl)amino)benzyl)-1H-indol-5-yl)amino)nicotinic acid] as the compound, how does the pIC50 read?
**A.** The pIC50 was at least 8.00.

**Q.** CC(C)n1ccc2ccc(Nc3ncc(C4CC4)cc3C(=O)O)cc21 [Example 519, 5-cyclopropyl-2-((1-isopropyl-1H-indol-6-yl)amino)nicotinic acid] was tested. Which pIC50 did it give?
**A.** Its pIC50 is 7.00 to 8.00.

**Q.** With CC(C)Cn1ccc2ccc(Nc3ncc(C4CC4)cc3C(=O)O)cc21 [Example 521, 5-cyclopropyl-2-((1-isobutyl-1H-indol-6-yl)amino)nicotinic acid] as the compound, how does the pIC50 read?
**A.** Its pIC50 is at least 8.00.

**Q.** How did the pIC50 turn out when O=C(O)c1cc(C2CC2)cnc1Nc1ccc2ccn(-c3ccccc3)c2c1 [Example 525, 5-cyclopropyl-2-((1-phenyl-1H-indol-6-yl)amino)nicotinic acid] was run?
**A.** The pIC50 was at least 8.00.

**Q.** How did the pIC50 turn out when O=C(O)c1cc(C2CC2)cnc1Nc1ccc2c(-c3ccccc3)nccc2c1 [Example 527, 5-cyclopropyl-2-((1-phenylisoquinolin-6-yl)amino)nicotinic acid] was run?
**A.** The pIC50 was at least 8.00.

**Q.** How did the pIC50 turn out when O=C(O)c1cc(C2CC2)cnc1Nc1ccc2c(-c3ccccc3)ncnc2c1 [Example 529, 5-cyclopropyl-2-((4-phenylquinazolin-7-yl)amino)nicotinic acid] was run?
**A.** The pIC50 was 7.00 to 8.00.
